Results taken from ChEMBL document CHEMBL4024712, “Synthesis, stability and mechanistic studies of potent anticryptococcal hexapeptides” (Eur J Med Chem, 2017).
≈ marks a conversion by molar mass, not a printed value. Non-standard residues stand in square brackets, D forms with d. Residues, ends and D or L forms follow the SMILES beside them. His(τ-Bzl) = N[C@@H](Cc1cn(Cc2ccccc2)cn1)C(=O)O; Phe(4-NH2) = Nc1ccc(C[C@H](N)C(=O)O)cc1; Phe(4-Me) = Cc1ccc(C[C@H](N)C(=O)O)cc1; Cha = N[C@@H](CC1CCCCC1)C(=O)O; Phg = N[C@H](C(=O)O)c1ccccc1; dOrn = NCCC[C@@H](N)C(=O)O; Orn = NCCC[C@H](N)C(=O)O

Tests used:
Nakaseomyces glabratus = assay: Antifungal activity against Candida glabrata ATCC 90030 after 18 to 24 hrs by Alamar blue assay; format: functional
Staphylococcus aureus [1] = assay: Bactericidal activity against methicillin-resistant Staphylococcus aureus ATCC 33591 by CLSI method; format: functional
Staphylococcus aureus [2] = assay: Anti-bacterial activity against Staphylococcus aureus ATCC 29213 by CLSI method; format: functional; conditions: Staphylococcus aureus, ATCC 29213; for IC50: read-out: IC50
Pseudomonas aeruginosa = assay: Anti-bacterial activity against Pseudomonas aeruginosa ATCC 27853 by CLSI method; format: functional
Candida albicans [3] = assay: Antifungal activity against Candida albicans ATCC 90028 after 18 to 24 hrs by Alamar blue assay; format: functional; conditions: for MIC: Candida albicans, ATCC 90028
[4] = system: Mycobacterium intracellulare; assay: Bactericidal activity against Mycobacterium intracellulare ATCC 23068 after 68 to 72 hrs by Alamar blue assay; format: functional
Vero = assay: Cytotoxicity against African green monkey Vero cells up to 10 ug/ml after 48 hrs by neutral red dye based assay; format: cell-based; conditions: chlorocebus sabaeus
Pichia kudriavzevii [5] = assay: Antifungal activity against Candida krusei ATCC 6258 after 18 to 24 hrs by Alamar blue assay; format: functional
Aspergillus fumigatus = assay: Antifungal activity against Aspergillus fumigatus ATCC 90906 after 68 to 72 hrs by Alamar blue assay; format: functional
Pichia kudriavzevii [6] = assay: Fungicidal activity against Candida krusei ATCC 6258 after 18 to 24 hrs by Alamar blue assay; format: functional
Staphylococcus aureus [7] = assay: Anti-bacterial activity against methicillin-resistant Staphylococcus aureus ATCC 33591 by CLSI method; format: functional
Staphylococcus aureus [8] = assay: Bactericidal activity against Staphylococcus aureus ATCC 29213 by CLSI method; format: functional
Escherichia coli [9] = assay: Anti-bacterial activity against Escherichia coli ATCC 35218 by CLSI method; format: functional
[10] = system: Mycobacterium intracellulare; assay: Anti-bacterial activity against Mycobacterium intracellulare ATCC 23068 after 68 to 72 hrs by Alamar blue assay; format: functional, cell-based; conditions: for MIC: Mycobacterium intracellulare, ATCC 23068
Escherichia coli [11] = assay: Bactericidal activity against Escherichia coli ATCC 35218 by CLSI method; format: functional
Cryptococcus neoformans [12] = assay: Fungicidal activity against Cryptococcus neoformans ATCC 90113 after 68 to 72 hrs by Alamar blue assay; format: functional
Candida albicans [13] = assay: Fungicidal activity against Candida albicans ATCC 90028 after 18 to 24 hrs by Alamar blue assay; format: functional
Cryptococcus neoformans [14] = assay: Antifungal activity against Cryptococcus neoformans ATCC 90113 after 68 to 72 hrs by Alamar blue assay; format: functional
[15] = Staphylococcus aureus, ATCC 33591
[16] = Escherichia coli, ATCC 35218, read-out: IC50
[17] = Pichia kudriavzevii, ATCC 6258, read-out: IC50
[18] = Staphylococcus aureus, ATCC 33591, read-out: IC50

SMILES	IC50 (Nakaseomyces glabratus)	MIC (Staphylococcus aureus [2]) [µg/mL]	IC50 (Pseudomonas aeruginosa)	MIC (Candida albicans [3]) [µg/mL]	Activity (Vero)	MIC (Pichia kudriavzevii [5]; Pichia kudriavzevii, ATCC 6258) [µg/mL]	IC50 (Aspergillus fumigatus)	MFC (Pichia kudriavzevii [6]) [µg/mL]	MBC (Staphylococcus aureus [8]) [µg/mL]	MIC (Escherichia coli [9]; Escherichia coli, ATCC 35218) [µg/mL]	MBC (Escherichia coli [11]) [µg/mL]	MFC (Cryptococcus neoformans [12]) [µg/mL]	MIC (Cryptococcus neoformans [14]) [µg/mL]	IC50 (Candida albicans [3])	IC50 [10]	other results
NCCC[C@H](N)C(=O)N[C@H](Cc1c[nH]c2ccccc12)C(=O)N[C@@H](CC1CCCCC1)C(=O)N[C@H](C(=O)N[C@H](Cc1ccccc1)C(=O)N[C@@H](Cc1cn(Cc2ccccc2)cn1)C(N)=O)c1ccccc1 (H-[Orn][dW][Cha][Phg][dF][His(τ-Bzl)]-NH2)	Not Active	20 (≈ 20.4 µM)	Not Active	20 (≈ 20.4 µM)	Non-Toxic	10 (≈ 10.2 µM)	Not Active	10 (≈ 10.2 µM)	20 (≈ 20.4 µM)	–	–	–	–	–	–	MBC (Staphylococcus aureus [1]): 20 µg/mL (≈ 20.4 µM); MBC [4]: 10 µg/mL (≈ 10.2 µM); MIC (Staphylococcus aureus [7]; [15]): 20 µg/mL (≈ 20.4 µM)
CC[C@@H](C)[C@@H](NC(=O)[C@H](CC1CCCCC1)NC(=O)[C@@H](Cc1c[nH]c2ccccc12)NC(=O)[C@@H](N)CCCN)C(=O)N[C@H](Cc1ccccc1)C(=O)N[C@@H](Cc1cn(Cc2ccccc2)cn1)C(N)=O (H-[Orn][dW][Cha][dI][dF][His(τ-Bzl)]-NH2)	–	20 (≈ 20.9 µM)	–	20 (≈ 20.9 µM)	–	10 (≈ 10.4 µM)	–	10 (≈ 10.4 µM)	20 (≈ 20.9 µM)	20 (≈ 20.9 µM)	20 (≈ 20.9 µM)	2.5 (≈ 2.61 µM)	–	–	–	MIC [10]: 20 µg/mL (≈ 20.9 µM); MBC [4]: 20 µg/mL (≈ 20.9 µM)
CC(C)[C@@H](NC(=O)[C@H](CC1CCCCC1)NC(=O)[C@@H](Cc1c[nH]c2ccccc12)NC(=O)[C@@H](N)CCCN)C(=O)N[C@H](Cc1ccccc1)C(=O)N[C@@H](Cc1cn(Cc2ccccc2)cn1)C(N)=O (H-[Orn][dW][Cha][dV][dF][His(τ-Bzl)]-NH2)	Not Active	–	Not Active	20 (≈ 21.2 µM)	Non-Toxic	20 (≈ 21.2 µM)	Not Active	20 (≈ 21.2 µM)	–	–	–	–	1.25 (≈ 1.32 µM)	–	–	IC50 (Escherichia coli [9]): Not Active; MFC (Candida albicans [13]): 20 µg/mL (≈ 21.2 µM); MIC [10]: 20 µg/mL (≈ 21.2 µM)
Cc1ccc(C[C@H](NC(=O)[C@@H](Cc2ccccc2)NC(=O)[C@@H](Cc2c[nH]c3ccccc23)NC(=O)[C@@H](N)CCCN)C(=O)N[C@H](Cc2ccccc2)C(=O)N[C@H](CCCN)C(N)=O)cc1 (H-[Orn][dW][dF][Phe(4-Me)][dF][dOrn]-NH2)	Not Active	–	Not Active	–	Non-Toxic	20 (≈ 22.5 µM)	Not Active	20 (≈ 22.5 µM)	–	–	–	1.25 (≈ 1.41 µM)	1.25 (≈ 1.41 µM)	Not Active	Not Active	IC50 (Escherichia coli [9]; [16]): > 20 µg/mL; IC50 (Staphylococcus aureus [2]): > 20 µg/mL; IC50 (Pichia kudriavzevii [5]; [17]): 9.7 µg/mL (≈ 10.9 µM); IC50 (Staphylococcus aureus [7]; [18]): > 20 µg/mL; IC50 (Cryptococcus neoformans [14]): 0.67 µg/mL (≈ 0.755 µM)
Cc1ccc(C[C@H](NC(=O)[C@@H](Cc2ccccc2)NC(=O)[C@@H](Cc2c[nH]c3ccccc23)NC(=O)[C@@H](N)CCCN)C(=O)N[C@H](Cc2ccccc2)C(=O)N[C@H](CCCNC(=N)N)C(N)=O)cc1 (H-[Orn][dW][dF][Phe(4-Me)][dF][dR]-NH2)	Not Active	20 (≈ 21.5 µM)	–	–	Non-Toxic	20 (≈ 21.5 µM)	Not Active	20 (≈ 21.5 µM)	20 (≈ 21.5 µM)	10 (≈ 10.8 µM)	20 (≈ 21.5 µM)	1.25 (≈ 1.35 µM)	1.25 (≈ 1.35 µM)	Not Active	Not Active	IC50 (Escherichia coli [9]; [16]): 4.8 µg/mL (≈ 5.17 µM); IC50 (Staphylococcus aureus [2]): 13.5 µg/mL (≈ 14.5 µM); IC50 (Pseudomonas aeruginosa; Pseudomonas aeruginosa, ATCC 27853, read-out: IC50): 15.7 µg/mL (≈ 16.9 µM); IC50 (Pichia kudriavzevii [5]; [17]): 14 µg/mL (≈ 15 µM); IC50 (Staphylococcus aureus [7]; [18]): > 20 µg/mL; IC50 (Cryptococcus neoformans [14]): 0.83 µg/mL (≈ 0.893 µM)
Cc1ccc(C[C@H](NC(=O)[C@@H](Cc2ccccc2)NC(=O)[C@@H](Cc2c[nH]c3ccccc23)NC(=O)[C@@H](N)Cc2ccc(N)cc2)C(=O)N[C@H](Cc2ccccc2)C(=O)N[C@@H](Cc2cn(Cc3ccccc3)cn2)C(N)=O)cc1 (H-[Phe(4-NH2)][dW][dF][Phe(4-Me)][dF][His(τ-Bzl)]-NH2)	Not Active	–	Not Active	–	Non-Toxic	–	Not Active	–	20 (≈ 19.1 µM)	–	–	5 (≈ 4.77 µM)	–	Not Active	Not Active	IC50 (Escherichia coli [9]): Not Active; IC50 (Pichia kudriavzevii [5]): Not Active; IC50 (Staphylococcus aureus [7]): Not Active
Cc1ccc(C[C@H](NC(=O)[C@@H](Cc2ccccc2)NC(=O)[C@@H](Cc2c[nH]c3ccccc23)NC(=O)[C@H](N)CCCNC(=N)N)C(=O)N[C@H](Cc2ccccc2)C(=O)N[C@@H](Cc2cn(Cc3ccccc3)cn2)C(N)=O)cc1 (H-[dR][dW][dF][Phe(4-Me)][dF][His(τ-Bzl)]-NH2)	Not Active	20 (≈ 19.2 µM)	Not Active	–	Non-Toxic	20 (≈ 19.2 µM)	Not Active	20 (≈ 19.2 µM)	20 (≈ 19.2 µM)	20 (≈ 19.2 µM)	20 (≈ 19.2 µM)	2.5 (≈ 2.4 µM)	–	Not Active	Not Active	MBC (Staphylococcus aureus [1]): 20 µg/mL (≈ 19.2 µM); MIC (Staphylococcus aureus [7]; [15]): 20 µg/mL (≈ 19.2 µM)
